Source: patent publication US7319098B2, “1,3-dioxoisoindole derivatives having selective antagonism of T-type calcium channel” (Korea Institute of Science and Technology, priority 2006, dated 2008)

How the values were obtained:
[1] = biological target: T1, α1G T-type Ca2+ currents (Homo sapiens, UniProt O43497); test: Electrophysiological whole cell patch clamp method in HEK293 cell; format: cell-based; conditions: peak current, step to −30 mV, read-out: Activity (IC50) against T-type calcium channel
T1 construct: expressed in transfected cells; host or cells: HEK293
T1 sequence (O43497 whole entry): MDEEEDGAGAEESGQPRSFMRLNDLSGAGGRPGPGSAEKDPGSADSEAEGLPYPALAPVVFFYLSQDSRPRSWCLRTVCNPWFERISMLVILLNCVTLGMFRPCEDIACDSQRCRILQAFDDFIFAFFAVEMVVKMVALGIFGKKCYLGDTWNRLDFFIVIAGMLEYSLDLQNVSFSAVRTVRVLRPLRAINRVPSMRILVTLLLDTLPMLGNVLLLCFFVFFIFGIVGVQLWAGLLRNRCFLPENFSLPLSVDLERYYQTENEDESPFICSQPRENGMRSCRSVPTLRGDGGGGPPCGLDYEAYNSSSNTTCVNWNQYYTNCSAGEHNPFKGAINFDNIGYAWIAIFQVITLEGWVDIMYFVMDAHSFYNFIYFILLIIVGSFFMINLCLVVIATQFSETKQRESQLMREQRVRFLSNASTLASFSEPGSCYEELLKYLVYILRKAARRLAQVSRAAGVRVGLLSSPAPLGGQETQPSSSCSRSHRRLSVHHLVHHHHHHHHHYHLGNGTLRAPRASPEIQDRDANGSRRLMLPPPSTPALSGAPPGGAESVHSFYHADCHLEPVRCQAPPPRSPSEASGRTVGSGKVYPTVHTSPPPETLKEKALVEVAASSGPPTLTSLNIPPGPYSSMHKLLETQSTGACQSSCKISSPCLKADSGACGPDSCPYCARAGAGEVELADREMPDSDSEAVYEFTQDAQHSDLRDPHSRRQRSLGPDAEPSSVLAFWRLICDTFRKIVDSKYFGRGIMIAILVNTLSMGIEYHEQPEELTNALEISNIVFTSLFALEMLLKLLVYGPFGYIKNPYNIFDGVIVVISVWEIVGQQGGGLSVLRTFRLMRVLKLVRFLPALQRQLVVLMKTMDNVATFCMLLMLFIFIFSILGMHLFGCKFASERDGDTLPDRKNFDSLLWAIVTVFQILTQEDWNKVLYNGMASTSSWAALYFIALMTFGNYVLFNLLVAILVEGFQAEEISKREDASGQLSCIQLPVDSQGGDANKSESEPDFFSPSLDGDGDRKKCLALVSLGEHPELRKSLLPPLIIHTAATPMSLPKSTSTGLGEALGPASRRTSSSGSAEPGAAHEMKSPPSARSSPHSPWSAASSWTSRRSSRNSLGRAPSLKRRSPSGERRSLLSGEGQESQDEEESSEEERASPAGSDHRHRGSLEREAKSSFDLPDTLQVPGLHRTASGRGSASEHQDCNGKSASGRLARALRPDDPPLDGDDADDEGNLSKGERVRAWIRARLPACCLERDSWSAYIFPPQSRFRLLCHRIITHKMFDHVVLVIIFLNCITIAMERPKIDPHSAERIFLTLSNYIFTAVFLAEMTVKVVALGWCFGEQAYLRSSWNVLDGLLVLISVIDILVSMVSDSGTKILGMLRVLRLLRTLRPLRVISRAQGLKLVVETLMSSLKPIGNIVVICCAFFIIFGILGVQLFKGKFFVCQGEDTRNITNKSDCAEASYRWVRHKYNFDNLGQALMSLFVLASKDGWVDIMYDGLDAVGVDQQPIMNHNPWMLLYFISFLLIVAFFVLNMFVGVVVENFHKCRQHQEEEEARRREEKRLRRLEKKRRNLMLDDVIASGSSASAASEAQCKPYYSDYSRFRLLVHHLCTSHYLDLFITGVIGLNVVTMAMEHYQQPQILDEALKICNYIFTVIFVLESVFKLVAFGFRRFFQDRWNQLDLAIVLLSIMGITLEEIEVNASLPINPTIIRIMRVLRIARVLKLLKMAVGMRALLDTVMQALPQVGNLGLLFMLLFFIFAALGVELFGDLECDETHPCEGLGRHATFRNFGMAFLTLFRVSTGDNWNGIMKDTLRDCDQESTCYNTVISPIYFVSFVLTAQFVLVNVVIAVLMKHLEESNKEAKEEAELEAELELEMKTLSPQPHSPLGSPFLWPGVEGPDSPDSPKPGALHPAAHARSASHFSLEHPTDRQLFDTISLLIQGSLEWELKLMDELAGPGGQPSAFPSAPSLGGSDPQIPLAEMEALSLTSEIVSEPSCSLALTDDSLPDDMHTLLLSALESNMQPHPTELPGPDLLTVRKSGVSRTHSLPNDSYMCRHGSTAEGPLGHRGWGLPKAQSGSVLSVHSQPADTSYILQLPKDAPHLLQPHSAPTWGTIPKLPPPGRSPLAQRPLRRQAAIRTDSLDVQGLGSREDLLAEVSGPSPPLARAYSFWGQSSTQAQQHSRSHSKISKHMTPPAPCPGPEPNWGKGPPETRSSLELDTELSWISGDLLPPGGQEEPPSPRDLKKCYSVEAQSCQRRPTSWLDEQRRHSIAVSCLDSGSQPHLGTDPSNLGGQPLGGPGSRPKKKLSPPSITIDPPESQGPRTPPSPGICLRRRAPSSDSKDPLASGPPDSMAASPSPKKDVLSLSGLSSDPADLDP
Method: Meanwhile, the antagonistic activity of the novel compound of Formula (1) herein against T-type calcium channel was tested as described below. The synthesized compounds were tested for the activity against T-type calcium channel with FDSS6000. […] For the recordings of α1G T-type Ca^2+ currents, the standard whole-cell patch-clamp method was utilized as previously described. Briefly, borosilicate glass electrodes with a resistance of 3˜4 MΩ were pulled and filled with the internal solution contained (in mM): 130 KCl, 11 EGTA, 5 Mg-ATP, and 10 HEPES (pH 7.4). […] The molar concentrations of test compounds required to produce 50% inhibition of peak currents (IC50) were determined from fitting raw data into dose-response curves. The current recordings were obtained using an EPC-9 amplifier and Pulse/Pulsefit software program (HEKA, Germany).

[2] = biological target: T2, α1G T-type Ca2+ channels (Homo sapiens, UniProt O43497); test: Screening of activity against T-type calcium channel with FDSS6000 (fluorescence, KCl-induced [Ca2+]i increase); format: cell-based; conditions: HEK293 cells expressing α1G and Kir2.1, read-out: Inhibitory effect (%) of T-type calcium channel, Inhibition (%); for inhibition at 10 µM: NA: Not Active
T2 construct: expressed in transfected cells; host or cells: HEK293 cells stably expressing α1G and Kir2.1
T2 sequence (O43497 whole entry): as above
Summary of the method: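 HEK293 cells stably expressing α1G plus Kir2.1 were loaded with 5 μM fluo3/AM for 60 min at room temperature in HEPES buffer pH 7.4. In buffer with 10 mM CaCl2, cells were pretreated with compound, then depolarized with 70 mM KCl. The rise in [Ca2+]i was measured by fluorescence […].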

[3] = spinal nerve ligation animal model; cited from earlier work

SMILES | IC50 [1] | inhibition at 100 µM [2] | inhibition at 10 µM [2] | effect on mechanic and thermal induction (neurogenic pain) [3]
O=C(NCCN1CCCCC1)c1ccc2c(c1)C(=O)N(Cc1cccc(F)c1)C2=O [Compound 61, 1-(2-{[2-(3-fluoro-benzyl)-1,3-dioxo-2,3-dihydro-1H-isoindol-5-carbonyl]-amino}-ethyl)-piperidinium chloride] | 8520 ± 750 nM | 85.5% |  | 
Cc1ccccc1CN1C(=O)c2ccc(C(=O)NCCN3CCCCC3)cc2C1=O [Compound 93, 1-(2-{[2-(2-methyl-benzyl)-1,3-dioxo-2,3-dihydro-1H-isoindol-5-carbonyl]-amino}-ethyl)-piperidinium chloride] | 8280 ± 2950 nM | 90.4% |  | 
Cc1cccc(CN2C(=O)c3ccc(C(=O)NCCN4CCCCC4)cc3C2=O)c1 [Compound 99, 1-(2-{[2-(3-methyl-benzyl)-1,3-dioxo-2,3-dihydro-1H-isoindol-5-carbonyl]-amino}-ethyl)-piperidinium chloride] | 1930 ± 230 nM | 89.7% |  | 
COCC(=O)O[C@]1(CCN(C)CCCc2nc3ccccc3[nH]2)CCc2cc(F)ccc2[C@@H]1C(C)C [Mibefradil, reference compound] |  |  | 75.1% | dosage-dependent reversed mechanic and thermal induction
CCC1(C)CC(=O)NC1=O (stereo not drawn) [Ethosuximide] |  |  |  | dosage-dependent reversed mechanic and thermal induction
Cc1ccccc1CN1C(=O)c2ccc(C(=O)NCCCN3CCCCC3C)cc2C1=O (stereo not drawn) [Compound 94, 2-methyl-1-(3-{[2-(2-methyl-benzyl)-1,3-dioxo-2,3-dihydro-1H-isoindol-5-carbonyl]-amino}-propyl)-piperidinium chloride] | 2070 ± 450 nM | 84.8% |  | 
CC1CCCCN1CCCNC(=O)c1ccc2c(c1)C(=O)N(Cc1ccc(F)cc1)C2=O (stereo not drawn) [Compound 69, 1-(3-{[2-(4-fluoro-benzyl)-1,3-dioxo-2,3-dihydro-1H-isoindol-5-carbonyl]-amino}-propyl)-2-methyl-piperidinium chloride] | 2030 ± 120 nM | 84.7% |  | 
O=C(NCCN1CCOCC1)c1ccc2c(c1)C(=O)N(Cc1ccccc1Cl)C2=O [Compound 79, 4-(2-{[2-(2-chloro-benzyl)-1,3-dioxo-2,3-dihydro-1H-isoindol-5-carbonyl]-amino}-ethyl)-4-morpholinium chloride] |  |  | 15.6% | 

Continued by falling IC50 [1], values first:

IC50 [1] | inhibition at 100 µM [2] | inhibition at 10 µM [2] | SMILES | effect on mechanic and thermal induction (neurogenic pain) [3]
1840 ± 210 nM |  | 48.4% | Cc1cccc(CN2C(=O)c3ccc(C(=O)NCCCN4CCCCC4C)cc3C2=O)c1 (stereo not drawn) [Compound 100, 2-methyl-1-(3-{[2-(3-methyl-benzyl)-1,3-dioxo-2,3-dihydro-1H-isoindol-5-carbonyl]-amino}-propyl)-piperidinium chloride] | 
1810 ± 460 nM |  | 46.2% | CC1CCCCN1CCCNC(=O)c1ccc2c(c1)C(=O)N(Cc1cccc(Cl)c1)C2=O (stereo not drawn) [Compound 82, 1-(3-{[2-(3-chloro-benzyl)-1,3-dioxo-2,3-dihydro-1H-isoindol-5-carbonyl]-amino}-propyl)-2-methyl-piperidinium chloride] | 
1520 ± 190 nM |  | 50.9% | CC1CCCCN1CCCNC(=O)c1ccc2c(c1)C(=O)N(Cc1ccccc1Cl)C2=O (stereo not drawn) [Compound 76, 1-(3-{[2-(2-chloro-benzyl)-1,3-dioxo-2,3-dihydro-1H-isoindol-5-carbonyl]-amino}-propyl)-2-methyl-piperidinium chloride] | 
960 ± 70 nM |  | 47.2% | O=C(NCCN1CCCCC1)c1ccc2c(c1)C(=O)N(Cc1ccc(Cl)cc1)C2=O [Compound 87, 1-(2-{[2-(4-chloro-benzyl)-1,3-dioxo-2,3-dihydro-1H-isoindol-5-carbonyl]-amino}-ethyl)-piperidinium chloride] | 
930 ± 60 nM |  | 46.6% | CC1CCCCN1CCCNC(=O)c1ccc2c(c1)C(=O)N(Cc1ccc(Cl)cc1)C2=O (stereo not drawn) [Compound 88, 1-(3-{[2-(4-chloro-benzyl)-1,3-dioxo-2,3-dihydro-1H-isoindol-5-carbonyl]-amino}-propyl)-2-methyl-piperidinium chloride] | 
